Results reported in PMC3349818 (Journal of Medicinal Chemistry, 2012).

Assays:
[1] = In vitro liver microsome assay, mouse; type: in vitro ADME; settings: predicted from mouse liver microsome stability
[2] = Pharmacokinetic study in female CD1 mice, single oral dose; settings: CD1, mouse, in vivo, 200 mg/kg

| predicted in vivo mouse CL′inf [1] [mL/min/kg] | AUC [2] [µM·h] | SMILES |
| --- | --- | --- |
| 9.4 | > 125 | CCOC(=O)c1c(-c2cccc(Cl)c2)[nH]c2cc(OC)c(F)cc2c1=O [20g, Ethyl 2-(3-chlorophenyl)-6-fluoro-7-methoxy-4-oxo-1,4-dihydroquinoline-3-carboxylate] |
| – | > 70 | CCOC(=O)c1c(-c2cccc(Br)c2)[nH]c2cc(OC)c(F)cc2c1=O [20h] |
